Data as given in paper PMC6627609, “Targeting Quorum Sensing: High-Throughput Screening to Identify Novel LsrK Inhibitors” (International Journal of Molecular Sciences, 2019).

biological target: LsrK (Salmonella typhimurium, UniProt Q8ZKQ6); assay: biochemical; format: biochemical, S. typhimurium; details: not given
Sequence (Q8ZKQ6 whole entry): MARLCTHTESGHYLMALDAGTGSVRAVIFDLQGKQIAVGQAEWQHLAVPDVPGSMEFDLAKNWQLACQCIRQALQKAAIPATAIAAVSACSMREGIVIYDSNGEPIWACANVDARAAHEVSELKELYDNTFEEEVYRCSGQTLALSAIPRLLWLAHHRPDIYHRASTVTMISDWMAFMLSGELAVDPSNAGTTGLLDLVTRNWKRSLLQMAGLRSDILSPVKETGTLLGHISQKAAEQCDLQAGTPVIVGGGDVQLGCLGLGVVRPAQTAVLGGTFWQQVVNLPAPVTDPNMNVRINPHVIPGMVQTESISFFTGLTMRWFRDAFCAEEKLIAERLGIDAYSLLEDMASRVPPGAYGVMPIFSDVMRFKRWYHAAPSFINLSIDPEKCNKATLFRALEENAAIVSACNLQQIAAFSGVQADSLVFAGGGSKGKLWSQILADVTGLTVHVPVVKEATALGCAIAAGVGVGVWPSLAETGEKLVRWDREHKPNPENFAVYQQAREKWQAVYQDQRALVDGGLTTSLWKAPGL

**Q.** For `COc1ccc(C(=O)N2CCCC2=O)cc1`, which inhibition at 50 µM is on record?
**A.** 0%

**Q.** Which inhibition at 50 µM does the source give for `COC(=O)[C@H](Cc1ccccc1)NC(=O)[C@@H](N)CC(=O)O` here?
**A.** 0%

**Q.** Which inhibition at 50 µM does the source give for `C=CC1=C(C(=O)O)N2C(=O)[C@@H](NC(=O)/C(=N\O)c3csc(N)n3)[C@H]2SC1` here?
**A.** 17%

**Q.** Which inhibition at 50 µM does the source give for `CCN(CC)C(=S)SSC(=S)N(CC)CC` here?
**A.** 154%

**Q.** With `CCN(CC)C(=O)c1ccc(O)c(OC)c1` as the molecule, how does the inhibition at 50 µM read?
**A.** 0%

**Q.** With `CNc1ccccc1C(=O)O` as the molecule, how does the inhibition at 50 µM read?
**A.** 1%

**Q.** How did the inhibition at 50 µM turn out when `CCOC(=O)[C@H](CCc1ccccc1)N[C@@H](C)C(=O)N1[C@H](C(=O)O)C[C@@H]2CCC[C@@H]21` was run?
**A.** 3%

**Q.** `CC(=O)Nc1ccc(S(=O)(=O)Nc2ccc([N+](=O)[O-])cc2)cc1` was tested. Which inhibition at 50 µM did it give?
**A.** 1%

**Q.** With `CC1=C(CC(=O)O)c2cc(F)ccc2/C1=C\c1ccc([S+](C)[O-])cc1` (stereo not drawn) as the molecule, how does the inhibition at 50 µM read?
**A.** 21%

**Q.** `CN1CC(=O)N2[C@H](c3ccc4c(c3)OCO4)c3[nH]c4ccccc4c3C[C@@H]2C1=O` was tested. Which inhibition at 50 µM did it give?
**A.** 1%

**Q.** For `COc1ccc2c(c1)OC[C@@H](Cc1ccc(OC)c(OC)c1)[C@H]2O`, which inhibition at 50 µM is on record?
**A.** 2%

**Q.** Which inhibition at 50 µM does the source give for `COc1ccc(/C=C/C(=O)Nc2ccccc2C(=O)O)cc1OC` here?
**A.** 15%

**Q.** How did the inhibition at 50 µM turn out when `Nc1nc(N)c2nc(-c3ccccc3)c(N)nc2n1` was run?
**A.** 0%

**Q.** `CCOC(N)=O` was tested. Which inhibition at 50 µM did it give?
**A.** 0%

**Q.** `CCCCC(=O)N(Cc1ccc(-c2ccccc2-c2nnn[nH]2)cc1)[C@H](C(=O)O)C(C)C` was tested. Which inhibition at 50 µM did it give?
**A.** 1%

**Q.** `CC(C)CC(NC(=O)[C@H](C)N)C(=O)O` (mixture of isomers) [ALANYL-dl-LEUCINE] was tested. Which inhibition at 50 µM did it give?
**A.** 2%

**Q.** Which inhibition at 50 µM does the source give for `OC[C@H]1O[C@@H](O[C@@H]2[C@@H](CO)OC(O)(CO)[C@H]2O)[C@H](O)[C@@H](O)[C@H]1O` (mixture of isomers) [LACTULOSE] here?
**A.** 2%

**Q.** For `Nc1ccccc1S(N)(=O)=O` [2-AMINOBENZENESULFONAMIDE], which inhibition at 50 µM is on record?
**A.** 1%

**Q.** How did the inhibition at 50 µM turn out when `COC1=CC(=O)C(C(=O)c2ccccc2)=CC1=O` [2-BENZOYL-5-METHOXYBENZOQUINONE] was run?
**A.** 38%

**Q.** For `Sc1nc2ccccc2s1` [2-MERCAPTOBENZOTHIAZOLE], which inhibition at 50 µM is on record?
**A.** 1%

**Q.** `COC1(C)CCC2OC2(C)CCC2C1CC2(C)C` (stereo not drawn) [2-METHOXY-5 (6)EPOXY-TETRAHYDROCARYOPHYLLENE] was tested. Which inhibition at 50 µM did it give?
**A.** 0%

**Q.** Which inhibition at 50 µM does the source give for `COc1c(O)cccc1O` [2-METHOXYRESORCINOL] here?
**A.** 0%

**Q.** For `CC(=O)c1cc2ccccc2oc1=O` [3-ACETYLCOUMARIN], which inhibition at 50 µM is on record?
**A.** 0%

**Q.** With `C=C1C(N)CC2CC1C2(C)C` (stereo not drawn) [3-AMINO-beta-PINENE] as the molecule, how does the inhibition at 50 µM read?
**A.** 1%

**Q.** For `CC(=O)O[C@H]1C[C@@H](O)C(C)(C)[C@@H]2C[C@@H](OC(C)=O)[C@]3(C)[C@H](CC[C@@]4(C)[C@@H](c5ccoc5)OC(=O)[C@H]5O[C@@]534)[C@@]12C` [3-DEACETYLKHIVORIN], which inhibition at 50 µM is on record?
**A.** 99%

**Q.** `CC(=O)O[C@H]1CC[C@]2(C)C(C[C@@H](OC(C)=O)[C@]3(C)C4=CC(=O)O[C@H](c5ccoc5)[C@@]4(C)CCC23)C1(C)C` (stereo partly drawn) [3-DEOXO-3beta-ACETOXYDEOXYDIHYDROGEDUNIN] was tested. Which inhibition at 50 µM did it give?
**A.** 5%

**Q.** `COC(=O)C[C@H]1C(C)(C)[C@@H](O)[C@@H]2CC3=C4C=C(OC)O[C@@H](c5ccoc5)[C@]4(C)CCC3[C@@]1(C)C2=O` (stereo partly drawn) [3-DEOXO-3beta-HYDROXYMEXICANOLIDE 16-ENOL ETHER] was tested. Which inhibition at 50 µM did it give?
**A.** 2%

**Q.** How did the inhibition at 50 µM turn out when `C=C1[C@H]2CC[C@@]3(C)[C@H](c4ccoc4)OC(=O)C[C@]13O[C@H]1C[C@H](O)C(C)(C)[C@H](CC(=O)OC)[C@]12C` [3-DEOXY-3beta-HYDROXY[…] METHYL ESTER] was run?
**A.** 1%

**Q.** With `COc1ccc2c(c1)OC[C@@H](Cc1ccc(OC)c(OC)c1)[C@@H]2O` [3-DESHYDRO[…] ETHER] as the molecule, how does the inhibition at 50 µM read?
**A.** 3%

**Q.** `COc1cccc(O)c1O` [3-METHOXYCATECHOL] was tested. Which inhibition at 50 µM did it give?
**A.** 118%

**Q.** How did the inhibition at 50 µM turn out when `Cc1cc(O)c(C)c(O)c1C(=O)O` [3-METHYL[…]] was run?
**A.** 1%

**Q.** `C[C@@H]1CC[C@@]23CCC4(C)[C@@](C=CC5[C@@]6(C)CCC(=O)C(C)(C)C6CC[C@]54C)(OC2=O)C3[C@H]1C` (stereo partly drawn) [3-OXOURSAN (28-13)OLIDE] was tested. Which inhibition at 50 µM did it give?
**A.** 1%

same assay, conditions: 50 µM

**Q.** For `CC1(C)C2CC(=O)[C@]3(C)C(CC[C@@]4(C)[C@H](c5ccoc5)OC(=O)C5OC543)[C@@]2(C)[C@@H](O)C[C@H]1O` (stereo partly drawn), which “Inhibition (%)” value is on record?
**A.** 2

**Q.** Which “Inhibition (%)” value does the source give for `CCOc1cccc(C(=O)c2ccc(O)c(O)c2O)c1` here?
**A.** 11

**Q.** With `COC(=O)NC(=S)Nc1ccccc1NC(=S)NC(=O)OC` as the molecule, how does the “Inhibition (%)” value read?
**A.** 3

**Q.** `CC[C@H](C=C[C@@H](C)[C@H]1CC[C@H]2[C@@H]3CCC4=CC(=O)CC[C@]4(C)[C@H]3CC[C@]12C)C(C)C` was tested. Which “Inhibition (%)” value did it give?
**A.** 1

**Q.** For “3-BROMO-4-METHYL-3.4-HEXAMETHYLENE-3.4-DIHYDRODIAZETE-1.2-DIOXIDE”, which “Inhibition (%)” value is on record?
**A.** 1

**Q.** `C=CC[S+]([O-])C[C@H](N)C(=O)O` (mixture of isomers) [L(+/-)-ALLIIN] was tested. Which “Inhibition (%)” value did it give?
**A.** 44

**Q.** With `COc1cc(O)c(C(=O)/C=C/c2ccc(OC)c(O)c2)c(OC)c1` [2'.3-DIHYDROXY-4.4'.6'-TRIMETHOXYCHALCONE] as the molecule, how does the “Inhibition (%)” value read?
**A.** 2

**Q.** How did the “Inhibition (%)” value turn out when `COc1ccc(/C=C/C(=O)c2ccc(O)cc2O)cc1` [2'.4'-DIHYDROXY-4-METHOXYCHALCONE] was run?
**A.** 2

**Q.** How did the “Inhibition (%)” value turn out when `O=C(/C=C/c1ccccc1)c1ccc(O[C@@H]2O[C@H](CO)[C@@H](O)[C@H](O)[C@H]2O)cc1O` [2'.4'-DIHYDROXYCHALCONE 4'-GLUCOSIDE] was run?
**A.** 2

**Q.** How did the “Inhibition (%)” value turn out when `O=C(/C=C/c1ccccc1)c1ccc(O)cc1O` [2'.4'-DIHYDROXYCHALCONE] was run?
**A.** 19

**Q.** With `COc1cc(O)c(C(=O)/C=C/c2ccc(O)c(OC)c2)c(OC)c1` [2'.4-DIHYDROXY-3.4'.6'-TRIMETHOXYCHALCONE] as the molecule, how does the “Inhibition (%)” value read?
**A.** 1

**Q.** With `O=C(/C=C/c1ccc(O)cc1)c1ccccc1O` [2'.4-DIHYDROXYCHALCONE] as the molecule, how does the “Inhibition (%)” value read?
**A.** 58

**Q.** How did the “Inhibition (%)” value turn out when `COc1ccc(/C=C/C(=O)c2cc(O)ccc2O)cc1` [2'.5'-DIHYDROXY-4-METHOXYCHALCONE] was run?
**A.** 102

**Q.** How did the “Inhibition (%)” value turn out when `COc1ccc(C(=O)O)c(O)c1OC` [2-HYDROXY-3.4-DIMETHOXYBENZOIC ACID] was run?
**A.** 1

**Q.** For `O=C1C(Cl)=C(Cl)C(=O)c2c(O)ccc(O)c21` [2.3-DICHLORO-5.8-DIHYDROXYNAPTHOQUINONE], which “Inhibition (%)” value is on record?
**A.** 30

**Q.** With `CCOc1ccc(C(=O)c2ccc(OC)c(O)c2O)cc1` [2.3-DIHYDROXY-4-METHOXY-4'-ETHOXYBENZOPHENONE] as the molecule, how does the “Inhibition (%)” value read?
**A.** 16

**Q.** For `O=C(O)C(S)C(S)C(=O)O` (stereo not drawn) [2.3-DIMERCAPTOSUCCINIC ACID], which “Inhibition (%)” value is on record?
**A.** 88

**Q.** How did the “Inhibition (%)” value turn out when `CCOc1ccc(C(=O)c2ccc(O)c(O)c2O)cc1` [2.3.4-TRIHYDROXY-4'-ETHOXYBENZOPHENONE] was run?
**A.** 79

**Q.** Which “Inhibition (%)” value does the source give for `O=[N+]([O-])c1ccc(O)c([N+](=O)[O-])c1` [2.4-DINITROPHENOL] here?
**A.** 4

**Q.** Which “Inhibition (%)” value does the source give for `COc1cc(O)c(C)c(O)c1` [2.6-DIHYDROXY-4-METHOXYTOLUENE] here?
**A.** 1

**Q.** With `COC1=CC(=O)C=C(OC)C1=O` [2.6-DIMETHOXYQUINONE] as the molecule, how does the “Inhibition (%)” value read?
**A.** 50

**Q.** Which “Inhibition (%)” value does the source give for `Nc1nc[nH]n1` [3-AMINO-1.2.4-TRIAZOLE] here?
**A.** 1

**Q.** For `COc1ccc(-c2oc3ccccc3c(=O)c2O)cc1OC` [3-HYDROXY-3'.4'-DIMETHOXYFLAVONE], which “Inhibition (%)” value is on record?
**A.** 0

**Q.** How did the “Inhibition (%)” value turn out when `c1ccc2c(Cc3c[nH]c4ccccc34)c[nH]c2c1` [3.3'-DIINDOLYLMETHANE] was run?
**A.** 0

**Q.** With `O=c1c(O)c(-c2ccccc2)oc2cc(O)ccc12` [3.7-DIHYDROXYFLAVONE] as the molecule, how does the “Inhibition (%)” value read?
**A.** 0

**Q.** With `CC1(C)CC2C1CCC1(C)OC2(C)CCC1O` (stereo not drawn) [3.7-EPOXYCARYOPHYLLAN-6-OL] as the molecule, how does the “Inhibition (%)” value read?
**A.** 2

**Q.** For `CC12CCC3C(CC3(C)C)C(C)(CCC1=O)O2` (stereo not drawn) [3.7-EPOXYCARYOPHYLLAN-6-ONE], which “Inhibition (%)” value is on record?
**A.** 1

same assay, conditions: read-out: IC50 against LsrK

**Q.** How did the IC50 turn out when `COc1ccc(/C=C/C(=O)c2cc(O)ccc2O)cc1` [2'.5'-DIHYDROXY-4-METHOXYCHALCONE] was run?
**A.** > 50 µM
